Reference: US8796308B2, “Modulators of cystic fibrosis transmembrane conductance regulator” (Vertex Pharmaceuticals Incorporated, priority 2009, dated 2014)
Values after ≈ are worked out from the molar mass of the structure shown.

Assays:
Δ508/G551D-HBE = Δ508/G551D-HBE (Homo sapiens, UniProt P13569, G551D); assay: Ussing chamber assay, Δ508/G551D-HBE; format: cell-based
[1] = biological target: T1, ΔF508-CFTR in NIH 3T3 cells (Homo sapiens, UniProt P13569, DEL508-508); assay: Membrane potential optical potentiator assay (FLIPR III); format: cell-based; details: temperature-corrected ΔF508 CFTR NIH 3T3 cells, forskolin
T1 construct: expressed in transfected cells
Source text: The assay utilizes fluorescent voltage sensing dyes to measure changes in membrane potential using a fluorescent plate reader (e.g., FLIPR III, Molecular Devices, Inc.) as a readout for increase in functional ΔF508-CFTR in NIH 3T3 cells. The driving force for the response is the creation of a chloride ion gradient in conjunction with channel activation by a single liquid addition step after the cells have previously been treated with compounds and subsequently loaded with a voltage sensing dye.
To identify potentiators of ΔF508-CFTR, a double-addition HTS assay format was developed. This HTS assay utilizes fluorescent voltage sensing dyes to measure changes in membrane potential on the FLIPR III as a measurement for increase in gating (conductance) of ΔF508 CFTR in temperature-corrected ΔF508 CFTR NIH 3T3 cells. The driving force for the response is a Cl^− ion gradient in conjunction with channel activation with forskolin in a single liquid addition step using a fluorescent plate reader such as FLIPR III after the cells have previously been treated with potentiator compounds (or DMSO vehicle control) and subsequently loaded with a redistribution dye.
Solutions • Bath Solution #1: (in mM) NaCl 160, KCl 4.5, CaCl2 2, MgCl2 1, HEPES 10, pH 7.4 with NaOH. • Chloride-free bath solution: Chloride salts in Bath Solution #1 are substituted with gluconate salts. […]

[2] = High throughput shake flask (HTSF) solubility at pH 7.4; format: physicochemical; details: aqueous buffer, kinetic from dmso stock; pH 7.4 phosphate buffer with 2% DMSO, shaken overnight
Protocol: A high throughput shake flask assay was used to determine solubility of compounds in pH 7.4 buffer. To calculate the concentration of compounds in solution, two conditions per compound were run: 300 uM in 100% DMSO and 200 uM in pH 7.4 phosphate buffer with 2% DMSO present. Each sample was left to shake overnight then injected onto HPLC-UV to determine peak area using the following conditions: Phenomenex 00A-4251-B0-30×2.00 mm Luna 3u C18(2) 100A column; 0.8 mL/min flow rate; 20 uL injection volume; HPLC grade water with 0.1% formic acid and HPLC grade acetonitrile with 0.1% formic acid mobile phases; peak area determined at 254 nm. Solubility in uM was calculated using the following equation: conc.=(peak area pH 7.4)/(peak area 300 uM DMSO standard condition)*300 uM concentration of standard condition. Peaks of interest were identified in buffer conditions based on retention time (RT) of the largest area peak in the 300 uM DMSO standard condition.

CaV 1.2 = CaV 1.2 (Homo sapiens, UniProt Q13936); assay: CaV 1.2 inhibition
[3] = HLM/RLM stability, % remaining at 30 min; format: in vitro ADME
ΔF508-CFTR in HBE = biological target: T2, ΔF508-CFTR in HBE (Homo sapiens, UniProt P13569, DEL508-508); assay: Ussing chamber assay, Δ508-HBE; format: cell-based; details: HBE from patients homozygous for ΔF508-CFTR
T2 construct: CF-HBE were isolated from patients homozygous for ΔF508-CFTR; endogenous in cells; host or cells: primary bronchial epithelial cells (HBE) from CF patients homozygous for ΔF508
Protocol: Ussing chamber experiments were performed on polarized airway epithelial cells expressing ΔF508-CFTR to further characterize the ΔF508-CFTR modulators identified in the optical assays. Non-CF and CF airway epithelia were isolated from bronchial tissue, cultured as previously described (Galietta, L. J. V., Lantero, S., Gazzolo, A., Sacco, O., Romano, L., Rossi, G. A., & Zegarra-Moran, O. (1998) In Vitro Cell. Dev. Biol. 34, 478-481), and plated onto Costar® Snapwell™ filters that were pre-coated with NIH3T3-conditioned media. After four days the apical media was removed and the cells were grown at an air liquid interface for >14 days prior to use. […] CF-HBE were isolated from patients homozygous for ΔF508-CFTR.
HBE grown on Costar® Snapwell™ cell culture inserts were mounted in an Ussing chamber (Physiologic Instruments, Inc., San Diego, Calif.), and the transepithelial resistance and short-circuit current in the presence of a basolateral to apical Cl^− gradient (ISC) were measured using a voltage-clamp system (Department of Bioengineering, University of Iowa, Iowa). Briefly, HBE were examined under voltage-clamp recording conditions (Vhold=0 mV) at 37° C. […]

Chain of Δ508/G551D-HBE (P13569 whole entry G551D, stated change not applied): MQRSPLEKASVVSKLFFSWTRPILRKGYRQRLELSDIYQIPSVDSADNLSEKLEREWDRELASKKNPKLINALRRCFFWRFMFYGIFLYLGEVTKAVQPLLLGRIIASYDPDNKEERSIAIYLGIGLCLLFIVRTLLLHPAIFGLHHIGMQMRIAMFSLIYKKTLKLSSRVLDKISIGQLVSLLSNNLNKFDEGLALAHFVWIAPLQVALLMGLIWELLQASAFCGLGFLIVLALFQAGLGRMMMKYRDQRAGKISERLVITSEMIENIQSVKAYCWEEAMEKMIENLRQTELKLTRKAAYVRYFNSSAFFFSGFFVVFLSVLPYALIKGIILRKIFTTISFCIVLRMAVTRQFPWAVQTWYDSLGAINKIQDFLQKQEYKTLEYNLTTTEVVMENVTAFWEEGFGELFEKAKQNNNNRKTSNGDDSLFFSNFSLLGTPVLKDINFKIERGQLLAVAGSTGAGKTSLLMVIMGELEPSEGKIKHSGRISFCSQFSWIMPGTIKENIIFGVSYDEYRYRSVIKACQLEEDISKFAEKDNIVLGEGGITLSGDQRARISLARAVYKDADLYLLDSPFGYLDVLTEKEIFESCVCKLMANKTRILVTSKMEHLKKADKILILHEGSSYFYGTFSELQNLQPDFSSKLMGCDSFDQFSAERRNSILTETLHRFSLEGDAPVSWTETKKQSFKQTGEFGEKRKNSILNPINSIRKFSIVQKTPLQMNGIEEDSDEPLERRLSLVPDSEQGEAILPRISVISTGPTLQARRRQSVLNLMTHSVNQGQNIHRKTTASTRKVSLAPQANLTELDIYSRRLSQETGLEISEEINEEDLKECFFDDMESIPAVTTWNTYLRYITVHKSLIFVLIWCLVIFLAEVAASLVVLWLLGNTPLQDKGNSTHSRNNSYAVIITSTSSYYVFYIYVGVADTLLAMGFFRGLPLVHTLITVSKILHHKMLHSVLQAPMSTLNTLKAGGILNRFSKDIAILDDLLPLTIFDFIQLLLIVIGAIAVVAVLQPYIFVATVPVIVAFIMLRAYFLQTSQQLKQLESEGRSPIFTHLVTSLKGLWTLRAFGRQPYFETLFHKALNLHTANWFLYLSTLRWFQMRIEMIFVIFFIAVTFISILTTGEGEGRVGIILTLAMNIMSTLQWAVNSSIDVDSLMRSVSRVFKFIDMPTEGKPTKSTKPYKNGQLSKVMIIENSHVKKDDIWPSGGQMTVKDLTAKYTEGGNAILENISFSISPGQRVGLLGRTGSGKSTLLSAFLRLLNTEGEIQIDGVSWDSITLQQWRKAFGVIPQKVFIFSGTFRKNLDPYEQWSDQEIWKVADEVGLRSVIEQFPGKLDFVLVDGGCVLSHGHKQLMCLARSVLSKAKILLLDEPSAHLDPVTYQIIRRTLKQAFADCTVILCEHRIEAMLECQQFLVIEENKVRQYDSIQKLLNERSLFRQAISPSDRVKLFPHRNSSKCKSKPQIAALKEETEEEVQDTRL
Chain of Δ508/G551D-HBE (P13569 whole entry G551D, stated change not applied): as above
T2 sequence (P13569 with tags, fused parts or gaps DEL508-508): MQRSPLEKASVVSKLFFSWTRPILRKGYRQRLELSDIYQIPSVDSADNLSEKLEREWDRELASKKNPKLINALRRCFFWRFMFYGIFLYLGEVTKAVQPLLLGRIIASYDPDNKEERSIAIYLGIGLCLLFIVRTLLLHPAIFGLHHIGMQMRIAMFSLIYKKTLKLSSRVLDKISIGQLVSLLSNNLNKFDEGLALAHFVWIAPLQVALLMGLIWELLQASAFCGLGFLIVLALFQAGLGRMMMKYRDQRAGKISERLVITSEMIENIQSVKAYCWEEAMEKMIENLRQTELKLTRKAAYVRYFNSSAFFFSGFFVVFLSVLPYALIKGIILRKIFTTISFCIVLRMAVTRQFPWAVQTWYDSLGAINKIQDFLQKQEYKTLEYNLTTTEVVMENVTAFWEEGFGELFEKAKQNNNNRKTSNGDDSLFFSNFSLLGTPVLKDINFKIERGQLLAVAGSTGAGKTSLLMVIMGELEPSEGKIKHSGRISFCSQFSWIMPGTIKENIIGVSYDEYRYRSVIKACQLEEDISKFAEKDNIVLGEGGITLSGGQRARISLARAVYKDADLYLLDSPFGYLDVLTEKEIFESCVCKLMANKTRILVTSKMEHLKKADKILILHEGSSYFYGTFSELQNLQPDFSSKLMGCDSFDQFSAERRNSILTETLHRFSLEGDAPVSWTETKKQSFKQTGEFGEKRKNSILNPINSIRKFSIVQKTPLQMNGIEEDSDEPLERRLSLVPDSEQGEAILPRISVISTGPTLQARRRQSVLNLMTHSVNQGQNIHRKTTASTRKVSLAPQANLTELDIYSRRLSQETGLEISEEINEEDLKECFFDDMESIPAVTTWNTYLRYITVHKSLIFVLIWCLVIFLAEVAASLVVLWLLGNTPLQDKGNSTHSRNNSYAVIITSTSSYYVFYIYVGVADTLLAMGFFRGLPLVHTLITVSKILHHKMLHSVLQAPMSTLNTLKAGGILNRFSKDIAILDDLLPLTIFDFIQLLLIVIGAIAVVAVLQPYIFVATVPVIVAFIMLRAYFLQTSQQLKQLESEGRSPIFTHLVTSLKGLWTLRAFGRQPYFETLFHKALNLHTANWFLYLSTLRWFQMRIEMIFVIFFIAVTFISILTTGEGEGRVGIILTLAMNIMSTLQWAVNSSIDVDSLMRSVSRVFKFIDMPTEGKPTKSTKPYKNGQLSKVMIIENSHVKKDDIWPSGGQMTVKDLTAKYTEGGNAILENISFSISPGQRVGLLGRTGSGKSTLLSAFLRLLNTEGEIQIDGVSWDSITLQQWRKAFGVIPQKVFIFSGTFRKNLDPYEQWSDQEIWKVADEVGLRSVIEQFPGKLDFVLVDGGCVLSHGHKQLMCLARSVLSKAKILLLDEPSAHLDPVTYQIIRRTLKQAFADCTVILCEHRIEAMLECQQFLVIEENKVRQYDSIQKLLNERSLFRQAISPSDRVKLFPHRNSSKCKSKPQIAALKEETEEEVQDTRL
T1 sequence (P13569 with tags, fused parts or gaps DEL508-508): as above

SMILES	EC50 (Δ508/G551D-HBE)	EC50 [1]	solubility [2]	IC50 (CaV 1.2)	HLM/RLM (% remain. @ 30 min) [3]	EC50 (ΔF508-CFTR in HBE)
CC(C)(C)c1cc(C(C)(C)CO)c(O)cc1NC(=O)c1c[nH]c2ccccc2c1=O [Compound 27, N-(2-tert-butyl-5-hydroxy-4-(1-hydroxy-2-methylpropan-2-yl)phenyl)-4-oxo-1,4-dihydroquinoline-3-carboxamide]	< 2000 nM	< 2000 nM	87 µM (≈ 35.5 µg/mL)	> 5000 nM	++ (“++” if efficacy was calculated to be from 100% to 25%)	< 2000 nM
CC(C)(C)c1cc(C(C)(C)C(=O)O)c(O)cc1NC(=O)c1c[nH]c2ccccc2c1=O [Compound 28, 2-(5-tert-butyl-2-hydroxy-4-(4-oxo-1,4-dihydroquinoline-3-carboxamido)phenyl)-2-methylpropanoic acid]	2000 to 5000 nM	2000 to 5000 nM	> 200 µM		+++ (“+++” if efficacy was calculated to be greater than 100%)	< 2000 nM
